biological target: T1, ALK2 R206H (GST-tagged mutant ALK2) (Homo sapiens, UniProt Q04771, R206H); test: ALK binding assay (LANTHASCREEN TR-FRET competitive binding, displacement of Kinase Tracer 178); settings: ALK2 R206H, LANTHASCREEN TR-FRET competitive binding; read-out: Binding Assay (IC50)
T1 construct: purchased Carna Bioscience or ThermoFisher 09-148 or PV6232
T1 sequence (Q04771 21-509 R206H): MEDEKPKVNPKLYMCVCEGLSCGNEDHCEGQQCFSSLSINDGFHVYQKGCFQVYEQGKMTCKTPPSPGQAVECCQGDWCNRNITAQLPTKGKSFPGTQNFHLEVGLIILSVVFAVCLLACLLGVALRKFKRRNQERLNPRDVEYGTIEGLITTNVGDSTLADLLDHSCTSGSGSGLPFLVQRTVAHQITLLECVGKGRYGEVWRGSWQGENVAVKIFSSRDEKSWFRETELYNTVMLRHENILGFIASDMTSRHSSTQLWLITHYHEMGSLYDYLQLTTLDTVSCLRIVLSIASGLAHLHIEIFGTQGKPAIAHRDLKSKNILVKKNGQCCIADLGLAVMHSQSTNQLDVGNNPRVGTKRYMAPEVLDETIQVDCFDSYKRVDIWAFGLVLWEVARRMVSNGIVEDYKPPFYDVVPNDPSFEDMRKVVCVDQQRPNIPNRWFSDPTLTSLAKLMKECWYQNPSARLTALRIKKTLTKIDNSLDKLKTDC
Method: Binding assays were conducted using the LANTHASCREEN® technology (ThermoFisher Scientific). LANTHASCREEN® is a competitive binding, displacement assay where the assumed steady state occupancy of the binding site is measured using a time-resolved, fluorescence energy transfer (TR-FRET) readout between a fluorescent tracer and Europium (Eu)-tagged antibody specific for the kinase or expression tag (e.g. GST) of interest. Displacement of the tracer by a compound of the disclosure reduces, and is directly proportional to, the TR-FRET between the tracer and the antibody. Tracer was used at a concentration equal to or near to its Kd for the kinase.
In all cases, the kinase (2-5 nM) was mixed with Eu-tagged antibody (10 nM) mix and tracer (50 nM) were incubated with test compound titrations prepared in 100% DMSO (1% DMSO final) for 30 minutes at room temperature. All reagents and compounds were dissolved in Kinase Buffer A (ThermoFisher) to achieve the final concentration. […] This readout was normalized to 0% and 100% inhibited control wells, plotted against inhibitor concentration, and fitted to a 4-parameter log dose response curve.
Blank values in the table indicate that the particular compound was not tested in this assay.

SMILES | IC50
CCN1CCN(c2ccc(-c3cc4c(N5CCN(C(=O)N6CC7(COC7)C6)CC5)ccnn4c3)cc2)CC1 [Compound 417] | 10 to 50 nM
CCN1CCN(c2ccc(-c3cc4c(N5CCN(C(=O)N6CC(COC)C6)CC5)ccnn4c3)cc2)CC1 [Compound 425] | > 50 nM
CCN1CCN(c2ccc(-c3cc4c(N5CCN(C(=O)C6(c7cccnc7)CC6)CC5)ccnn4c3)cc2)CC1 [Compound 433] | > 50 nM
CCN1CCN(c2ccc(-c3cc4c(N5CCN(C(=O)C6(c7cccs7)CC6)CC5)ccnn4c3)cc2)CC1 [Compound 438] | 10 to 50 nM
CCN1CCN(c2ccc(-c3cc4c(N5CCN(C(=O)C6(c7ccsc7)CC6)CC5)ccnn4c3)cc2)CC1 [Compound 439] | 10 to 50 nM
CCN1CCN(c2ccc(-c3cc4c(N5CCN(C(=O)C6(c7nccs7)CC6)CC5)ccnn4c3)cc2)CC1 [Compound 440] | > 50 nM
CCN1CCN(c2ccc(-c3cc4c(N5CCN(C(=O)C6(c7cccc(F)c7)CC6)CC5)ccnn4c3)cc2)CC1 [Compound 443] | 10 to 50 nM
CCN1CCC(c2ccc(-c3cc4c(N5CCN(C(=O)C6CC6c6ccc(Cl)cc6)CC5)ccnn4c3)cc2)C1 (stereo not drawn) [Compound 444] | 10 to 50 nM
CCN1CCC(c2ccc(-c3cc4c(N5CCN(C(=O)C6CC(O)(c7ccccc7)C6)CC5)ccnn4c3)cc2)CC1 (stereo not drawn) [Compound 446] | < 10 nM
N[C@H]1CCc2cc(-c3cc4c(N5CCN(C(=O)C6CC6)CC5)ccnn4c3)ccc21 [Compound 449] | < 10 nM
O=C(C1CC1)N1CCN(c2ccnn3cc(-c4ccc(C5=CCNCC5)cc4)cc23)CC1 [Compound 458] | < 10 nM
N[C@H]1CCN(c2ccc(-c3cc4c(N5CCN(C(=O)C6CC6)CC5)ccnn4c3)cc2)C1 [Compound 461] | < 10 nM
CC(c1ccc(-c2cc3c(N4CCN(C(=O)C5CC5)CC4)ccnn3c2)cc1)N1CCCC1 (stereo not drawn) [Compound 471] | > 50 nM
CC(C)N[C@H]1CCc2cc(-c3cc4c(N5CCN(C(=O)C6CC6)CC5)ccnn4c3)ccc21 [Compound 472] | < 10 nM
CC(C)N1C[C@H](c2ccc(-c3cc4c(N5CCN(C(=O)C6CC6)CC5)ccnn4c3)cc2)C[C@H]1C [Compound 506] | 10 to 50 nM
CC(C)N1CCC(c2ncc(-c3cc4c(N5CCN(C(=O)C6CC6)CC5)ccnn4c3)cn2)CC1 [Compound 525] | < 10 nM
CC(C)N1CCN(c2cnc(-c3cc4c(N5CCN(C(=O)C6CC6)CC5)ccnn4c3)nc2)CC1 [Compound 528] | 10 to 50 nM
CC(C)N1CCN(c2cnc(-c3cc4c(N5CCN(C(=O)C6CC6)CC5)ccnn4c3)cn2)CC1 [Compound 529] | < 10 nM
CCOC(=O)N1CCN(c2ccnn3cc(-c4ccc([C@]5(C)CCCN5C(C)C)cc4)cc23)CC1 [Compound 535] | < 10 nM

SMILES | IC50
CCOC(=O)N1CCN(c2ccnn3cc(-c4ccc([C@@]5(C)CCCN5C(C)C)cc4)cc23)CC1 [Compound 536] | < 10 nM
CCNC(=O)N1CCN(c2ccnn3cc(-c4cnc(C5CCN(C(C)C)CC5)nc4)cc23)CC1 [Compound 547] | < 10 nM
CCOC(=O)N1CCN(c2ccnn3cc(-c4cnc(C5CCN(C(C)C)CC5)nc4)cc23)CC1 [Compound 552] | < 10 nM
CCNC(=O)N1CCN(c2ccnn3cc(-c4ncc(N5CCN(C(C)C)CC5)cn4)cc23)CC1 [Compound 553] | 10 to 50 nM
CCOC(=O)N1CCN(c2ccnn3cc(-c4ncc(N5CCN(C(C)C)CC5)cn4)cc23)CC1 [Compound 555] | < 10 nM
CC(C)N1CCN[C@@](C)(c2ccc(-c3cc4c(N5CCN(C(=O)C6CC6)CC5)ccnn4c3)cc2)C1 [Compound 569] | < 10 nM
CC(C)N1CC=C(c2ccc(-c3cc4c(N5CCN(C(=O)C6CC6)CC5)ccnn4c3)c(F)c2)CC1 [Compound 571] | < 10 nM
CC(C)N1CCC(c2ccc(-c3cc4c(N5CCN(C(=O)C6COC6)CC5)ccnn4c3)cc2)CC1 [Compound 574] | < 10 nM
CC(C)N1CCC(c2ccc(-c3cc4c(N5CCN(C(=O)C6CC6)CC5)ccnn4c3)c(F)c2)CC1 [Compound 584] | < 10 nM
COCNC(=O)N1CCN(c2ccnn3cc(-c4ccc(C5CCN(C(C)C)CC5)cc4)cc23)CC1 [Compound 590] | < 10 nM
CCOC(=O)N1CCN(c2ccnn3cc(-c4ccc(C5=CCN(C(C)C)CC5)cc4F)cc23)CC1 [Compound 602] | < 10 nM
CC(C)NC(=O)N1CCN(c2ccnn3cc(-c4ccc([C@]5(O)CCN(C(C)C)C5)cn4)cc23)CC1 [Compound 607] | < 10 nM
CCOC(=O)N1CCN(c2ccnn3cc(-c4ccc(C5CCN(C(C)C)CC5)cc4F)cc23)CC1 [Compound 612] | < 10 nM
CCNC(=O)N1CCN(c2ccnn3cc(-c4ccc([C@]5(OC)CCCN(C(C)C)C5)cc4)cc23)CC1 [Compound 639] | < 10 nM
CCNC(=O)N1CCN(c2ccnn3cc(-c4ccc([C@@]5(OC)CCCN(C(C)C)C5)cc4)cc23)CC1 [Compound 640] | < 10 nM
CC(C)N1CCC(c2ccc(-c3cc4c(N5CCN(C(=O)OCC(C)(C)C)CC5)ccnn4c3)cc2)CC1 [Compound 670] | < 10 nM
CC(C)NC(=O)N1CCN(c2ccnn3cc(-c4ccc(C5CCN(C(C)C)CC5)cc4Cl)cc23)CC1 [Compound 700] | < 10 nM
CC(C)N1CCCC(O)(c2ccc(-c3cc4c(N5CCN(C(=O)C6CC(C#N)C6)CC5)ccnn4c3)cc2)C1 (stereo not drawn) [Compound 707] | < 10 nM
CCO[C@]1(c2ccc(-c3cc4c(N5CCN(C(=O)NC(C)C)CC5)ccnn4c3)nc2)CCCN(C(C)C)C1 [Compound 717] | < 10 nM

SMILES | IC50
COC1(c2ccc(-c3cc4c(N5CCN(C(=O)C6CC(C#N)C6)CC5)ccnn4c3)cc2)CCCN(C(C)C)C1 (stereo not drawn) [Compound 730] | < 10 nM
COC1(c2ccc(-c3cc4c(N5CCN(C(=O)[C@H]6C[C@H](C#N)C6)CC5)ccnn4c3)nc2)CCN([C@H](C)CO)CC1 [Compound 742] | < 10 nM
NCC(O)c1ccc(-c2cc3c(N4CCN(C(=O)C5CC5)CC4)ccnn3c2)cc1 (stereo not drawn) [Compound 751] | < 10 nM
O=C(C1CC1)N1CCN(c2ccnn3cc(-c4ccc(CNCCO)cc4)cc23)CC1 [Compound 756] | < 10 nM
NC(CO)Cc1ccc(-c2cc3c(N4CCN(C(=O)C5CC5)CC4)ccnn3c2)cc1 (stereo not drawn) [Compound 757] | < 10 nM
COCC(N)c1ccc(-c2cc3c(N4CCN(C(=O)C5CC5)CC4)ccnn3c2)cc1 (stereo not drawn) [Compound 758] | < 10 nM
NC(CO)c1ccc(-c2cc3c(N4CCN(C(=O)C5CC5)CC4)ccnn3c2)c(F)c1 (stereo not drawn) [Compound 759] | < 10 nM
CCS(=O)(=O)c1ccc(-c2cc3c(N4CCN(C(=O)C5CC5)CC4)ccnn3c2)cc1 [Compound 765] | < 10 nM
O=C(C1CC1)N1CCN(c2ccnn3cc(-c4ccc(C5CC6(CNC6)C5)cc4)cc23)CC1 [Compound 767] | < 10 nM
NC(c1ccc(-c2cc3c(N4CCN(C(=O)C5CC5)CC4)ccnn3c2)cc1)C1CCCO1 (stereo not drawn) [Compound 769] | < 10 nM
O=C(C1CC1)N1CCN(c2ccnn3cc(-c4ccc(C5(C(=O)O)CCNCC5)cc4)cc23)CC1 [Compound 781] | 10 to 50 nM
CO[C@]1(c2ccc(-c3cc4c(N5CCN(C(=O)NC(C)C)CC5)ccnn4c3)cc2F)CCCNC1 [Compound 806] | < 10 nM
CO[C@@]1(c2ccc(-c3cc4c(N5CCN(C(=O)NC(C)C)CC5)ccnn4c3)cc2F)CCCNC1 [Compound 807] | < 10 nM
CC(C)N1CCC(c2ccc(-c3cc4c(N5CCN(C(=O)NCC(F)F)CC5)ccnn4c3)cc2)CC1 [Compound 822] | 10 to 50 nM
CC(C)N1CCC(c2ccc(-c3cc4c(N5CCN(C(=O)N6CC7(COC7)C6)CC5)ccnn4c3)cc2)CC1 [Compound 841] | 10 to 50 nM
CC(C)N1CCC(c2ccc(-c3cc4c(N5CCN(C(=O)N6CCC67COC7)CC5)ccnn4c3)cc2)CC1 [Compound 842] | 10 to 50 nM
CCOC1(c2ccc(-c3cc4c(N5CCN(C(=O)NC(C)C)CC5)ccnn4c3)nc2)CCN(C[C@@H](C)F)CC1 [Compound 862] | < 10 nM
CCOC1(c2ccc(-c3cc4c(N5CCN(C(=O)O[C@@H](C)CF)CC5)ccnn4c3)nc2)CCN(C(C)C)CC1 [Compound 866] | < 10 nM
CCOC1(c2ccc(-c3cc4c(N5CCN(C(=O)OC6COC6)CC5)ccnn4c3)nc2)CCN(C(C)CF)CC1 (stereo not drawn) [Compound 881] | < 10 nM

From US10233186B2, “Inhibitors of activin receptor-like kinase” (BLUEPRINT MEDICINES CORPORATION, priority 2016, dated 2019)
